Measured values from ChEMBL document CHEMBL5244222, “A comprehensive review on xanthone derivatives as α-glucosidase inhibitors” (Eur J Med Chem, 2018).
≈ marks a conversion by molar mass, not a printed value. Values belong to the compound of their own block, whether it stands above or below them.

What was measured:
Alpha-glucosidase [1] = target: T1, Alpha-glucosidase (Saccharomyces cerevisiae S288c, UniProt P53341+P38158+P07265); test: Inhibition of yeast alpha-glucosidase using p-nitrophenyl-alpha-D-glucopyranoside as substrate incubated for 30 mins by spectrophotometric assay; format: protein assay
Alpha-glucosidase [2] = target: T1, Alpha-glucosidase; test: Inhibition of yeast alpha-glucosidase assessed as release of p-nitrophenol using PNPG as substrate preincubated for 10 mins followed by substrate addition and measured after 35 mins by microplate photometer analysis; format: protein assay
Alpha glucosidase [3] = target: T2, Alpha glucosidase (Homo sapiens, UniProt O43451+P10253+P14410+Q2M2H8); test: Inhibition of alpha-glucosidase (unknown origin) at 100 uM; format: protein assay
Alpha-glucosidase [4] = target: T1, Alpha-glucosidase; test: Inhibition of Saccharomyces cerevisiae alpha-glucosidase assessed as release of p-nitrophenol using pNPG as substrate preincubated for 5 mins followed by substrate addition and measured after 30 mins by absorbance assay; format: protein assay
Alpha glucosidase [5] = target: T2, Alpha glucosidase; test: Inhibition of alpha-glucosidase (unknown origin) using PNPG as substrate incubated for 30 mins by absorbance assay; format: protein assay
Alpha-glucosidase [6] = target: T1, Alpha-glucosidase; test: Inhibition of Saccharomyces cerevisiae alpha-glucosidase assessed as release of p-nitrophenol using pNPG as substrate preincubated for 15 mins followed by substrate addition and measured after 15 mins by plate reader analysis; format: protein assay
Alpha-glucosidase [7] = target: T1, Alpha-glucosidase; test: Inhibition of baker's yeast alpha-glucosidase using PNP as substrate preincubated for 30 mins followed by […] addition and measured after 1 mins by UV spectrophotometric analysis; format: protein assay
Alpha-glucosidase [8] = target: T1, Alpha-glucosidase; test: Inhibition of Saccharomyces cerevisiae alpha-glucosidase using PNPG as substrate incubated for 30 mins by spectrophotometric assay; format: protein assay
Alpha-glucosidase [9] = target: T1, Alpha-glucosidase; test: Inhibition of Saccharomyces cerevisiae alpha-glucosidase using maltose as substrate incubated for 30 mins by spectrophotometric assay; format: protein assay
Alpha-glucosidase [10] = target: T1, Alpha-glucosidase; test: Mixed-type inhibition of Saccharomyces cerevisiae alpha-glucosidase using PNPG as substrate incubated for 30 mins by Lineweaver-Burk double-reciprocal plot analysis; format: protein assay
Alpha glucosidase [11] = target: T2, Alpha glucosidase; test: Inhibition of alpha-glucosidase (unknown origin) at 40 uM; format: protein assay
Rattus norvegicus [12] = species: Rattus norvegicus; test: Inhibition of rat intestine alpha-glucosidase using MUG as substrate at 65 uM preincubated for 15 mins followed by substrate addition and measured after 30 mins by fluorescence microplate reader analysis; format: tissue-based; conditions: time 45.0 min
[13] = Inhibition of rice alpha-glucosidase using p-nitrophenyl-alpha-D-glucopyranoside as substrate preincubated for 15 mins followed by substrate addition and measured after 90 mins by spectroscopic analysis
[14] = Inhibition of rat intestine alpha-glucosidase using p-nitrophenyl-alpha-D-glucopyranoside as substrate preincubated for 10 mins followed by substrate addition and measured after 5 mins by spectroscopic analysis; format: tissue-based
Rattus norvegicus [15] = species: Rattus norvegicus; test: Inhibition of rat intestine alpha-glucosidase using MUG as substrate at 100 uM preincubated for 15 mins followed by substrate addition and measured after 30 mins by fluorescence microplate reader analysis; format: tissue-based; conditions: time 45.0 min
[16] = Inhibition of rat jejunum isomaltase; format: tissue-based
Rattus norvegicus [17] = species: Rattus norvegicus; test: Inhibition of rat jejunum maltase at 300 ug/ml; format: tissue-based; conditions: dose 300.0 µg/ml
[18] = Inhibition of rat jejunum sucrase; format: tissue-based
Alpha-glucosidase [19] = target: T1, Alpha-glucosidase; test: Inhibition of Saccharomyces cerevisiae alpha-glucosidase using PNPG as substrate preincubated for 15 mins followed by substrate addition and measured after 30 mins by spectrophotometric assay; format: protein assay
Alpha-glucosidase [20] = target: T1, Alpha-glucosidase; test: Inhibition of Saccharomyces cerevisiae alpha-glucosidase using pNPG as preincubated for 10 mins followed by substrate addition and measured after 30 mins by spectroscopic analysis; format: protein assay
Alpha-glucosidase [21] = target: T1, Alpha-glucosidase; test: Inhibition of Saccharomyces cerevisiae alpha-glucosidase using pNPG as preincubated for 15 mins followed by substrate addition and measured after 30 mins by spectroscopic analysis
[22] = target: Alpha-glucosidase (Saccharomyces cerevisiae S288c) (UniProt P53341+P38158+P07265); test: Inhibition of Saccharomyces cerevisiae alpha-glucosidase using p-NP-alpha-G as substrate at 100 uM by spectroscopic analysis; format: protein assay
Prunus dulcis = test: Inhibition of almond beta-glucosidase using p-NP-beta-G as substrate at 100 uM by spectroscopic analysis

SMILES: CC(C)=CCOc1cc(O)c2c(=O)c3ccccc3oc2c1
inhibition (Alpha glucosidase [3]): 31%

SMILES: C=C(C)/C=C/c1c(O)cc(O)c2c(=O)c3c(C/C=C(/C)CC=C(C)C)c(OC)c(O)cc3oc12
IC50 (Alpha-glucosidase [2]): 14.1 µM

SMILES: COc1cc(OC/C=C(\C)CC=C(C)C)c2c(=O)c3c(O)ccc(OC)c3oc2c1
inhibition (Alpha glucosidase [3]): 30.9%

SMILES: O=c1c2c(O)cc(O)cc2oc2cc(O)cc(O)c12
IC50 (Alpha glucosidase [5]): 39 µM

SMILES: C=C(C)/C=C/c1cc(O)c(O)c2oc3c(C/C=C(/C)CC=C(C)C)c(OC)cc(O)c3c(=O)c12
IC50 (Alpha-glucosidase [2]): 7.8 µM

SMILES: C=CC(C)(C)c1c(O)ccc2c(=O)c3c(O)c(CC=C(C)C)c(OC)c(O)c3oc12
IC50 (Alpha-glucosidase [4]): 8.9 µM

SMILES: C=C(C)/C=C/c1c(OC)c(O)cc2oc3cc4c(c(O)c3c(=O)c12)CC(O)C(C)(C)O4 (stereo not drawn)
IC50 (Alpha-glucosidase [8]): 30.5 µM | IC50 (Alpha-glucosidase [9]): 102.5 µM | Ki (Alpha-glucosidase [10]): 23 µM

SMILES: C[C@H]1O[C@H](O[C@H]2[C@H](O)[C@@H](O)[C@@H](O[C@H]3[C@H](O)[C@@H](O)C(O)O[C@@H]3CO)O[C@@H]2CO)[C@H](O)[C@@H](O)[C@@H]1N[C@H]1C=C(CO)[C@@H](O)[C@H](O)[C@H]1O (stereo partly drawn) [ACARBOSE]
inhibition (Alpha glucosidase [11]): 5.4% | inhibition (Rattus norvegicus [12]): 50% | IC50 [13]: 2.39 µg/mL (≈ 3.7 µM) | IC50 [14]: 1820 µM

SMILES: O=c1c2cc(O)c(O)cc2oc2cc(O)c([C@H]3O[C@@H](CO)[C@H](O)[C@@H](O)[C@@H]3O)c(O)c12
inhibition (Rattus norvegicus [15]): 53% | IC50 [16]: 216 µg/mL (≈ 511 µM) | IC50 [13]: 96.1 µg/mL (≈ 228 µM) | inhibition (Rattus norvegicus [17]): 42% | IC50 [18]: 87 µg/mL (≈ 206 µM) | IC50 [14]: 52200 µM

SMILES: O=c1c2cc(O[C@H]3O[C@@H](O)[C@H](O)[C@@H](O)[C@@H]3O)c(O)cc2oc2cc(O)c([C@H]3O[C@@H](CO)[C@H](O)[C@@H](O)[C@@H]3O)cc12
IC50 [13]: 158 µg/mL (≈ 285 µM)

SMILES: C=C(C)/C=C/c1c(O)cc2oc3cc(O)c(O)c(C/C=C(\C)CC=C(C)C)c3c(=O)c2c1O
IC50 (Alpha-glucosidase [2]): 1.7 µM

SMILES: C=Cc1cc2oc3cc(O)cc(O)c3c(=O)c2c(OC)c1O
IC50 (Alpha glucosidase [5]): 26.3 µM

SMILES: C=C(C)/C=C/c1c(OC)cc(O)c2c(=O)c3ccc(O)c(O)c3oc12
IC50 (Alpha-glucosidase [2]): 9.4 µM

SMILES: C=C(C)/C=C/c1c(O)c(CC=C(C)C)c2oc3c(O)ccc(O)c3c(=O)c2c1O
IC50 (Alpha-glucosidase [8]): 10.8 µM | IC50 (Alpha-glucosidase [9]): 37.7 µM | Ki (Alpha-glucosidase [10]): 8.5 µM | IC50 (Alpha-glucosidase [19]): 84 µM

SMILES: OC[C@H]1NC[C@H](O)[C@@H](O)[C@@H]1O
inhibition [22]: 79.6% | inhibition (Prunus dulcis): 81.2%

SMILES: COc1cc(OC/C=C(\C)C/C=C(\C)CC=C(C)C)c2c(=O)c3c(O)ccc(OC)c3oc2c1
inhibition (Alpha glucosidase [3]): 66.2%

Further lines, results first:

IC50 (Alpha-glucosidase [1]): 168.7 µM | IC50 (Alpha-glucosidase [2]): 28 µM
SMILES: COc1c(O)cc2oc3cc(O)c(C/C=C(\C)CO)c(O)c3c(=O)c2c1C/C=C(/C)CC=C(C)C

IC50 (Alpha-glucosidase [4]): 29.36 µM
SMILES: CC(C)=CCc1cc2c(=O)c3c(O)c4c(cc3oc2c(O)c1O)OC(C)(C)C=C4

inhibition (Alpha glucosidase [3]): 34.5%
SMILES: COc1cc(OC/C=C(\C)C/C=C(\C)C/C=C(\C)C/C=C(\C)C/C=C(\C)C/C=C(\C)C/C=C(\C)C/C=C(\C)CC=C(C)C)c2c(=O)c3c(O)ccc(OC)c3oc2c1

IC50 (Alpha-glucosidase [2]): 53.5 µM
SMILES: C=C(C)/C=C/c1c(O)cc2oc3c(/C=C/C(=C)C)c(O)c(OC)cc3c(=O)c2c1O

IC50 (Alpha-glucosidase [6]): 3.2 µg/mL (≈ 13.1 µM) | IC50 (Alpha-glucosidase [7]): 14.7 µM
SMILES: O=c1c2cc(O)ccc2oc2cc(O)cc(O)c12

IC50 (Alpha-glucosidase [8]): 5 µM | IC50 (Alpha-glucosidase [9]): 53.3 µM | Ki (Alpha-glucosidase [10]): 7.3 µM | IC50 (Alpha-glucosidase [1]): 11.4 µM
SMILES: C=C(C)/C=C/c1c(O)cc2oc3cc(O)c(OC)c(/C=C/C(=C)C)c3c(=O)c2c1O

IC50 (Alpha-glucosidase [6]): 13.2 µg/mL (≈ 45.8 µM)
SMILES: COc1cc(O)c2c(=O)c3cc(O)ccc3oc2c1OC

IC50 (Alpha-glucosidase [8]): 6.9 µM | IC50 (Alpha-glucosidase [9]): 35.3 µM | Ki (Alpha-glucosidase [10]): 2.8 µM | IC50 (Alpha-glucosidase [19]): 394 µM
SMILES: CC(C)=CC/C(C)=C/Cc1c(O)cc2oc3c(O)ccc(O)c3c(=O)c2c1O

IC50 (Alpha-glucosidase [20]): 36 µM | IC50 (Alpha-glucosidase [21]): 765 µM
SMILES: COc1cc(O)c2c(=O)c3c(O)c(O[C@@H]4OC[C@@H](O)[C@H](O)[C@H]4O[C@@H]4O[C@@H](C)[C@H](O)[C@@H](O)[C@H]4O)ccc3oc2c1
